Test results: patent US8575157B2, “Cyclic inhibitors of 11beta-hydroxysteroid dehydrogenase 1” (Vitae Pharmaceuticals, Inc., priority 2010, dated 2013)
Read-outs that look alike come from different tables or passages of the source. Blank lines part the entries; values can stand above or below the molecule they belong to.

Assays:
human CYP2C9 = human CYP2C9 (Homo sapiens (Human), UniProt P11712); experiment: CYP2C9 inhibition (Invitrogen kit, OOMR fluorogenic substrate), Biological Test Example 9; format: in vitro ADME; conditions: read-out: Biological Test Example 9 CYP2C9 IC50
[1] = biological target: human recombinant cytochrome P450 3A4 (Homo sapiens (Human), UniProt P08684); experiment: CYP3A4 inhibition, Biological Test Example 6; format: in vitro ADME
[2] = biological target: human recombinant cytochrome P450 2C9 (Homo sapiens (Human), UniProt P11712); experiment: CYP2C9 inhibition ([O-methyl-14C]-Naproxen), Biological Test Example 7; format: in vitro ADME
[3] = biological target: human recombinant cytochrome P450 2C19 (Homo sapiens (Human), UniProt P33261); experiment: CYP2C19 inhibition, Biological Test Example 8; format: in vitro ADME; conditions: read-out: Biological Test Example 8 CYP2C19, IC50
11β-HSD1 = 11β-HSD1 (Homo sapiens (Human), UniProt P28845); format: biochemical; conditions: human liver microsomes, 100% indicates no inhibition, zero or below zero indicates complete inhibition
[4] = Invitrogen kit, OOMR fluorogenic substrate
[5] = human recombinant CYP2C19, [N-methyl-14C]-Diazepam

human recombinant cytochrome P450 2C19, sequence (P33261 whole entry): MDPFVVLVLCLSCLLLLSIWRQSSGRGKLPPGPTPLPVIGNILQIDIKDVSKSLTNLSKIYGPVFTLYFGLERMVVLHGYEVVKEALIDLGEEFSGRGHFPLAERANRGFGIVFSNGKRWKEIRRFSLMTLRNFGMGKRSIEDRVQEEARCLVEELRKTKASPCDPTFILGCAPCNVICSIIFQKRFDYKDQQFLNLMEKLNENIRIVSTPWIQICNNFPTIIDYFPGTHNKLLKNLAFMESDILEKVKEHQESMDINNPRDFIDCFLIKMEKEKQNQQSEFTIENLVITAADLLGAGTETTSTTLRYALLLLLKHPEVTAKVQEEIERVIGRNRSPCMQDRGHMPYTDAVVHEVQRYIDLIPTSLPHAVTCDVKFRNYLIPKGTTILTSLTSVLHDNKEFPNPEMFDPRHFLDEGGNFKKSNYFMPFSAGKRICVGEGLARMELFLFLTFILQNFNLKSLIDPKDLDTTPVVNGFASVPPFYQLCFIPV
human recombinant cytochrome P450 3A4, sequence (P08684 whole entry): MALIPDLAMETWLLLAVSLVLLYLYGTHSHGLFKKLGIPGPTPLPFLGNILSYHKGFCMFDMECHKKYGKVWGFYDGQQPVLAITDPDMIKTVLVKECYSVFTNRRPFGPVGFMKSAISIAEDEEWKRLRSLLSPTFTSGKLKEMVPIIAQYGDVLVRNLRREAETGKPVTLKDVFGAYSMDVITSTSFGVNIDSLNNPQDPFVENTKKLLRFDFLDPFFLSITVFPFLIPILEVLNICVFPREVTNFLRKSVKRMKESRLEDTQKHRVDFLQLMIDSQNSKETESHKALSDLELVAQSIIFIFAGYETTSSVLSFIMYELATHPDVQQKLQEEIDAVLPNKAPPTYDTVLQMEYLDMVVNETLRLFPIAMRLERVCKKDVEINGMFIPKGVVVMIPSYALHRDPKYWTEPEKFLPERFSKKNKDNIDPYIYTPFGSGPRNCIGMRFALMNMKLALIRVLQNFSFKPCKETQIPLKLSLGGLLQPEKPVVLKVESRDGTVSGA
human recombinant cytochrome P450 2C9, sequence (P11712 whole entry): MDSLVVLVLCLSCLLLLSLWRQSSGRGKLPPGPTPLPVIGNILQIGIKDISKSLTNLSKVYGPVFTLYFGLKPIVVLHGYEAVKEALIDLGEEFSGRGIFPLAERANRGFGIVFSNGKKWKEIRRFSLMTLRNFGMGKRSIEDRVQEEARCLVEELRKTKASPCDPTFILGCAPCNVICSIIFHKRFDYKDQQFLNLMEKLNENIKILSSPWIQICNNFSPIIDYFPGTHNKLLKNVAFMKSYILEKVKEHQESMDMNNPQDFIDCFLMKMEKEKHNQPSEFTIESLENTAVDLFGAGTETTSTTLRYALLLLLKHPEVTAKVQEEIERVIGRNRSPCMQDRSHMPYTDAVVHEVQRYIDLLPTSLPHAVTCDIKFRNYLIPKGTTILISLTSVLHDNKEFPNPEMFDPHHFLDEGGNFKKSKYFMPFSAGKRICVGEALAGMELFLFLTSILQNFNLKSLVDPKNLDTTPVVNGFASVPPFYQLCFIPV
human CYP2C9, sequence (P11712 whole entry): as above
11β-HSD1, sequence (P28845 whole entry): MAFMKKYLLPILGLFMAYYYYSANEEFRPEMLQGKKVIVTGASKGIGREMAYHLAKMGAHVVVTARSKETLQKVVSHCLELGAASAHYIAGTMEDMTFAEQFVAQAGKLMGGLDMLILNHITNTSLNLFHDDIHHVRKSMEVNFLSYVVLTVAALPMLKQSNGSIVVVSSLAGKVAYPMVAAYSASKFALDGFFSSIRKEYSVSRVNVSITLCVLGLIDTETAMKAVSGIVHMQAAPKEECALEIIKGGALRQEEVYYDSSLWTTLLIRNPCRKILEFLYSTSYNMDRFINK

SMILES: C[C@@H](c1ccc(-c2ccc(=O)n(C)c2)cc1)N1CC[C@](CC(C)(C)N)(c2ccccc2)OC1=O [Example 7, (S)-6-(2-amino-2-methylpropyl)-3-((S)-1-(4-(1-methyl-6-oxo-1,6-dihydropyridin-3-yl)phenyl)ethyl)-6-phenyl-1,3-oxazinan-2-one]
IC50 (human CYP2C9; [4]): 4 µM

SMILES: C[C@@H](c1ccc(-c2ccn(C)c(=O)c2)cc1)N1CC[C@](CC(C)(C)O)(c2ccccc2F)OC1=O [Example 26, (S)-6-(2-fluorophenyl)-6-(2-hydroxy-2-methylpropyl)-3-((S)-1-(4-(1-methyl-2-oxo-1,2-dihydropyridin-4-yl)phenyl)ethyl)-1,3-oxazinan-2-one]
IC50 [1]: > 50 µM
IC50 [2]: > 50 µM
IC50 [3]: > 50 µM

SMILES: C[C@@H](c1ccc(-c2ccc(=O)n(C)c2)cc1)N1CC[C@](CC(C)(C)O)(c2ccc(F)cc2)OC1=O [Example 32, (S)-6-(4-fluorophenyl)-6-(2-hydroxy-2-methylpropyl)-3-((S)-1-(4-(1-methyl-6-oxo-1,6-dihydropyridin-3-yl)phenyl)ethyl)-1,3-oxazinan-2-one]
IC50 [1]: > 50 µM
IC50 [2]: > 50 µM
IC50 [3]: > 50 µM

SMILES: CC[C@@H](c1ccc(-c2ccc(=O)n(C)c2)cc1)N1CC[C@](CCO)(c2ccccc2)OC1=O [Example 40, (S)-6-(2-hydroxyethyl)-3-((S)-1-(4-(1-methyl-6-oxo-1,6-dihydropyridin-3-yl)phenyl)propyl)-6-phenyl-1,3-oxazinan-2-one]
IC50 [1]: > 50 µM
IC50 [2]: > 50 µM

SMILES: CC(C)n1cc(-c2ccc([C@H](C)N3CC[C@](CC(C)(C)O)(c4ccccc4)OC3=O)cc2)ccc1=O [Example 59, (S)-6-(2-hydroxy-2-methylpropyl)-3-((S)-1-(4-(1-isopropyl-6-oxo-1,6-dihydropyridin-3-yl)phenyl)ethyl)-6-phenyl-1,3-oxazinan-2-one]
IC50 [1]: > 50 µM

SMILES: Cc1cc(-c2ccc([C@H](C)N3CC[C@](CC(C)(C)O)(c4ccccc4)OC3=O)cc2)cn(C)c1=O [Example 61, (S)-3-((S)-1-(4-(1,5-dimethyl-6-oxo-1,6-dihydropyridin-3-yl)phenyl)ethyl)-6-(2-hydroxy-2-methylpropyl)-6-phenyl-1,3-oxazinan-2-one]
IC50 [1]: > 50 µM

SMILES: Cc1cc(-c2ccc([C@H](C)N3CC[C@](CC(C)(C)O)(c4ccccc4)OC3=O)cc2)cc(=O)n1C [Example 64, (S)-3-((S)-1-(4-(1,6-dimethyl-2-oxo-1,2-dihydropyridin-4-yl)phenyl)ethyl)-6-(2-hydroxy-2-methylpropyl)-6-phenyl-1,3-oxazinan-2-one]
IC50 [1]: > 50 µM

SMILES: C[C@@H](c1ccc(-c2ccc(=O)n(C)c2)cc1)N1CC[C@](CC(C)(C)C#N)(c2ccc(F)cc2)OC1=O [Example 69, 3-((R)-6-(4-fluorophenyl)-3-((S)-1-(4-(1-methyl-6-oxo-1,6-dihydropyridin-3-yl)phenyl)ethyl)-2-oxo-1,3-oxazinan-6-yl)-2,2-dimethylpropanenitrile]
IC50 [3]: > 50 µM

SMILES: C[C@@H](c1ccc(-c2ccc(=O)n(CC3CC3)c2)cc1)N1CC[C@](CC(C)(C)O)(c2ccccc2)OC1=O [Example 76, 3-{(S)-1-[4-(1-Cyclopropylmethyl-6-oxo-1,6-dihydro-pyridin-3-yl)-phenyl]-ethyl}-(S)-6-(2-hydroxy-2-methyl-propyl)-6-phenyl-[1,3]oxazinan-2-one]
Average % control inhibition at 100 nM (11β-HSD1): 17 % control

SMILES: COC[C@]1(c2ccccc2)CCN([C@@H](C)c2ccc(-c3ccn(C)c(=O)c3)cc2)C(=O)O1 [Example 78, (R)-6-Methoxymethyl-3-{(S)-1-[4-(1-methyl-2-oxo-1,2-dihydro-pyridin-4-yl)-phenyl]-ethyl}-6-phenyl-[1,3]oxazinan-2-one]
Average % control inhibition at 100 nM (11β-HSD1): 58 % control

Second part, the molecule after the results:

IC50 (human CYP2C9; [4]): 1.4 µM
SMILES: C[C@@H](c1ccc(-c2cc[nH]c(=O)c2)cc1)N1CC[C@](CC(C)(C)O)(c2ccccc2)OC1=O [Example 2, (S)-6-(2-hydroxy-2-methylpropyl)-3-((S)-1-(4-(2-oxo-1,2-dihydropyridin-4-yl)phenyl)ethyl)-6-phenyl-1,3-oxazinan-2-one]

IC50 (human CYP2C9; [4]): 5.1 µM
SMILES: C[C@@H](c1ccc(-c2ccc(=O)n(C(F)F)c2)cc1)N1CC[C@](CC(C)(C)O)(c2ccccc2)OC1=O [Example 4, (S)-3-((S)-1-(4-(1-(difluoromethyl)-6-oxo-1,6-dihydropyridin-3-yl)phenyl)ethyl)-6-(2-hydroxy-2-methylpropyl)-6-phenyl-1,3-oxazinan-2-one]

IC50 ([1]; human recombinant CYP3A4): 4.4 µM
IC50 ([2]; human recombinant CYP2C9): 2.3 µM
IC50 [3, 5]: 8.6 µM
IC50 (human CYP2C9; [4]): 5 µM
SMILES: C[C@@H](c1ccc(-c2ccc(=O)n(C)c2)cc1)N1CC[C@](CC(C)(C)C(N)=O)(c2ccccc2)OC1=O [Example 6, 2,2-dimethyl-3-((R)-3-((S)-1-(4-(1-methyl-6-oxo-1,6-dihydropyridin-3-yl)phenyl)ethyl)-2-oxo-6-phenyl-1,3-oxazinan-6-yl)propanamide]

IC50 (human CYP2C9; [4]): 3 µM
SMILES: CC(=O)NC(C)(C)C[C@]1(c2ccccc2)CCN([C@@H](C)c2ccc(-c3ccc(=O)n(C)c3)cc2)C(=O)O1 [Example 8, N-(2-methyl-1-((S)-3-((S)-1-(4-(1-methyl-6-oxo-1,6-dihydropyridin-3-yl)phenyl)ethyl)-2-oxo-6-phenyl-1,3-oxazinan-6-yl)propan-2-yl)acetamide]

IC50 ([1]; human recombinant CYP3A4): 4.4 µM
IC50 ([2]; human recombinant CYP2C9): 5.6 µM
IC50 [3, 5]: < 0.4 µM
IC50 (human CYP2C9; [4]): 7.3 µM
SMILES: C[C@@H](c1ccc(-c2ccn(C)c(=O)c2)cc1)N1CC[C@](CC(C)(C)NS(C)(=O)=O)(c2ccccc2)OC1=O [Example 13, N-(2-methyl-1-((S)-3-((S)-1-(4-(1-methyl-2-oxo-1,2-dihydropyridin-4-yl)phenyl)ethyl)-2-oxo-6-phenyl-1,3-oxazinan-6-yl)propan-2-yl)methanesulfonamide]

IC50 ([1]; human recombinant CYP3A4): 19.7 µM
IC50 ([2]; human recombinant CYP2C9): 25.9 µM
IC50 [3, 5]: 6.4 µM
IC50 (human CYP2C9; [4]): 24.6 µM
SMILES: C[C@@H](c1ccc(-c2cc[nH]c(=O)c2)cc1)N1CC[C@](CC(C)(C)C#N)(c2ccccc2)OC1=O [Example 14, 2,2-dimethyl-3-((R)-2-oxo-3-((S)-1-(4-(2-oxo-1,2-dihydropyridin-4-yl)phenyl)ethyl)-6-phenyl-1,3-oxazinan-6-yl)propanenitrile]

IC50 ([1]; human recombinant CYP3A4): 3.1 µM
IC50 ([2]; human recombinant CYP2C9): 7.7 µM
IC50 [3, 5]: < 0.4 µM
IC50 (human CYP2C9; [4]): 9.5 µM
SMILES: C[C@@H](c1ccc(-c2ccc(=O)[nH]c2)cc1)N1CC[C@](CC(C)(C)C#N)(c2ccc(F)cc2)OC1=O [Example 15, 3-((R)-6-(4-fluorophenyl)-2-oxo-3-((S)-1-(4-(6-oxo-1,6-dihydropyridin-3-yl)phenyl)ethyl)-1,3-oxazinan-6-yl)-2,2-dimethylpropanenitrile]

IC50 [1]: > 50 µM
SMILES: C[C@@H](c1ccc(-c2ccc(=O)n(C)c2)cc1)N1CC[C@](CCCO)(c2ccccc2)OC1=O [Example 30, (R)-6-(3-hydroxypropyl)-3-((S)-1-(4-(1-methyl-6-oxo-1,6-dihydropyridin-3-yl)phenyl)ethyl)-6-phenyl-1,3-oxazinan-2-one]

IC50 [1]: > 50 µM
IC50 [2]: > 50 µM
IC50 [3]: > 50 µM
IC50 (human CYP2C9): 30 µM
SMILES: CCn1cc(-c2ccc([C@H](C)N3CC[C@](CC(C)(C)O)(c4ccccc4)OC3=O)cc2)ccc1=O [Example 53, (S)-3-((S)-1-(4-(1-ethyl-6-oxo-1,6-dihydropyridin-3-yl)phenyl)ethyl)-6-(2-hydroxy-2-methylpropyl)-6-phenyl-1,3-oxazinan-2-one]

IC50 [2]: > 50 µM
SMILES: CCn1cc(-c2ccc([C@H](C)N3CC[C@](CC(C)(C)O)(c4ccc(F)cc4)OC3=O)cc2)ccc1=O [Example 62, (S)-3-((S)-1-(4-(1-ethyl-6-oxo-1,6-dihydropyridin-3-yl)phenyl)ethyl)-6-(4-fluorophenyl)-6-(2-hydroxy-2-methylpropyl)-1,3-oxazinan-2-one]

IC50 [2]: > 50 µM
SMILES: CCn1cc(-c2ccc([C@H](C)N3CC[C@](CC(C)(C)O)(c4ccccc4)OC3=O)cc2)cc(C)c1=O [Example 70, (S)-3-((S)-1-(4-(1-ethyl-5-methyl-6-oxo-1,6-dihydropyridin-3-yl)phenyl)ethyl)-6-(2-hydroxy-2-methylpropyl)-6-phenyl-1,3-oxazinan-2-one]

IC50 [1]: > 50 µM
IC50 [3]: > 50 µM
SMILES: C[C@@H](c1ccc(-c2ccn(C3CC3)c(=O)c2)cc1)N1CC[C@](CC(C)(C)O)(c2ccccc2F)OC1=O [Example 88, (S)-3-((S)-1-(4-(1-cyclopropyl-2-oxo-1,2-dihydropyridin-4-yl)phenyl)ethyl)-6-(2-fluorophenyl)-6-(2-hydroxy-2-methylpropyl)-1,3-oxazinan-2-one]
